Patent US20250222116A1, “PARP-1 DEGRADATION AGENT AND USE THEREOF” (XIZANG HAISCO PHARMACEUTICAL CO., LTD., priority 2021, published 2025)

Key:
[1] = system: breast tumor cells MDA-MB-436; assay: MDA-MB-436 cell activity test (CellTiter-Glo, 7 days); type: cell-based, human; details: Homo sapiens
Method in brief: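 MDA-MB-436 cells in Leibovitz's L-15 + 10% FBS, 37° C. without CO2, seeded 4000 cells/well overnight, then treated with compound dilutions for 7 days. Viability by CellTiter-Glo luminescence; inhibition relative to solvent control and cell-free blank, IC50 from concentration-response.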

PARP1 [2] = biological target: T1, PARP1 (Homo sapiens (Human), UniProt P09874); assay: PARP1 protein expression level in MDA-MB-436 cells; type: cell-based; details: 24 hours
Description: (§1) MDA-MB-436 cells were placed in a complete DMEM medium (supplemented with 15% FBS; 10 μg/mL Insulin; 16 μg/mL Glutathione and 1% penicillin-streptomycin solution), and cultured at 37° C. under CO2-free conditions. The cells in the logarithmic growth phase were collected, the cell density was adjusted to 2×10^5 cells/well with the culture medium, and the cells were added to a 6-well cell culture plate at a volume of 1 mL/well. The compound to be tested was prepared to 2-fold the final concentration, 1 mL of the compounds at different concentrations were added to administration wells, a medium containing 0.2% DMSO was added to control wells, and the plate was incubated for 24 hours at 37° C. The cells were collected into a 1.5 mL centrifuge tube, 25 μL of RIPA lysis buffer (containing 1× protease inhibitor cocktail) was added, and the cells were lysed on ice for 15 minutes and centrifuged at 12000 rpm/min at 4° C. for 10 minutes. The supernatant was collected and the protein content was determined using the BCA method. The protein sample to be tested was diluted to 0.8 mg/mL, PARP1 was detected using a fully automated protein expression quantitative analyzer (ProteinSimple), and the internal reference protein was 3-actin (both antibodies were from CST). The software (Compass for SW) of the fully automated protein expression quantitative analyzer was used to process the raw data and calculate the peak area and the PARP1 expression rate relative to the control group.
as §1, with “L-15” for “DMEM”, “mL/well and cultured overnight. On day 2, the” for “mL/well. The”, “group. DC50 values were calculated using a four-parameter non-linear fitting model in Graphpad 8.3.0 software.” for “group.”

PARP7 = PARP7 (Homo sapiens (Human), UniProt Q7Z3E1); assay: PARP7 enzyme activity inhibition (chemiluminescence kit); type: biochemical
Description: PARP1, PARP2 and PARP7 chemical […] detection kits were all purchased from BPS Bioscience. The histone solution in the kit was diluted 5× with 1×PBS, and 25 μL of the diluted histone solution was added to a microwell plate and incubated overnight at 4° C. After the incubation was completed, the plate was washed three times with PBST (0.05% Tween-20). 25 μL of a blocking solution was added to the microwell plate and incubated at 25° C. for 90 minutes. After the incubation was completed, the plate was washed three times with PBST. 2.5 μL of compounds at different concentrations diluted in test buffer and 5 μL of 2.5× substrate mixed solution were added to the microwell plate. PARP1, PARP2 and PARP7 enzymes were diluted to 0.33, 0.23 and 5.00 ng/μL, respectively, 5 μL of the diluent was added to the microwell plate, and the reaction system was incubated at 25° C. for 60 minutes. After the incubation was completed, the plate was washed three times with PBST. […] ELISA ECL substrate A and substrate B were mixed at a ratio of 1:1 (v/v), 25 μL of the mixture was added to the microwell plate, and the chemiluminescence value was read using a BMG microplate reader.
Curve fitting was performed by four parameters (log(inhibitor) vs. response−Variable slope) using GraphPad Prism software, and the IC50 value was calculated.

PARP1 [3] = biological target: T1, PARP1; assay: PARP1 protein expression level in MDA-MB-231 cells; type: cell-based; details: 24 hours
Description: The cells were collected into a 1.5 mL centrifuge tube, 25 μL of RIPA lysis buffer (containing 1× protease inhibitor cocktail) was added, and the cells were lysed on ice for 15 minutes and centrifuged at 12000 rpm/min at 4° C. for 10 minutes. The supernatant was collected and the protein content was determined using the BCA method. […] DC50 values were calculated using a four-parameter non-linear fitting model in Graphpad 8.3.0 software.

T1 sequence (P09874 whole entry): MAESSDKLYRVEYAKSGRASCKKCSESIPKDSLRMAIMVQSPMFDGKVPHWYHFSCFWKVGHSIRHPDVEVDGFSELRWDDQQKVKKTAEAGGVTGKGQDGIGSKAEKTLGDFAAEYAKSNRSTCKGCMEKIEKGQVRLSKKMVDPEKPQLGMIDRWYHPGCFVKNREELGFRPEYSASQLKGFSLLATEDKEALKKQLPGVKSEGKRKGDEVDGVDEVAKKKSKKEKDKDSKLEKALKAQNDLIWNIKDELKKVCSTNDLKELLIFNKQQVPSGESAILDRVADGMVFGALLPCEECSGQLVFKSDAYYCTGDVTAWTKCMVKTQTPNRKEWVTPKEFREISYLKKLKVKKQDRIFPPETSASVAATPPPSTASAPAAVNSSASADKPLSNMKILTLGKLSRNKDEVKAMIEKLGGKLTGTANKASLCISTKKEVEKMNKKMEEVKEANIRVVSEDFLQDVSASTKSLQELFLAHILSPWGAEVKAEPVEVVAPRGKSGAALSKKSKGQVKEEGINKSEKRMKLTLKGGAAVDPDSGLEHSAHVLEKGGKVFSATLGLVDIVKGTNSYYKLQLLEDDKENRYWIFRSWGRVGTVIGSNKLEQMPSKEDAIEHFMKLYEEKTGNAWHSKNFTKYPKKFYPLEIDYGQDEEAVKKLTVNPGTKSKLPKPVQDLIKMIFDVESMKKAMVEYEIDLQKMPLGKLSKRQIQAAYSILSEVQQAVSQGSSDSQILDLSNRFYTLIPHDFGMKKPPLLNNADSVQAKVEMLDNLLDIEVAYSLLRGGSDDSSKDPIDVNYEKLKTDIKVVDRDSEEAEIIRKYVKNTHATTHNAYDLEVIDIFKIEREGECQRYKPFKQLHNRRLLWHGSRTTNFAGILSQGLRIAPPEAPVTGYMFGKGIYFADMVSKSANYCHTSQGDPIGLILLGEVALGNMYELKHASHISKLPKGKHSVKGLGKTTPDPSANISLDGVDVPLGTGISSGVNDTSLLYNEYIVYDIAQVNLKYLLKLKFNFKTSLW
Sequence of PARP7 (Q7Z3E1 whole entry): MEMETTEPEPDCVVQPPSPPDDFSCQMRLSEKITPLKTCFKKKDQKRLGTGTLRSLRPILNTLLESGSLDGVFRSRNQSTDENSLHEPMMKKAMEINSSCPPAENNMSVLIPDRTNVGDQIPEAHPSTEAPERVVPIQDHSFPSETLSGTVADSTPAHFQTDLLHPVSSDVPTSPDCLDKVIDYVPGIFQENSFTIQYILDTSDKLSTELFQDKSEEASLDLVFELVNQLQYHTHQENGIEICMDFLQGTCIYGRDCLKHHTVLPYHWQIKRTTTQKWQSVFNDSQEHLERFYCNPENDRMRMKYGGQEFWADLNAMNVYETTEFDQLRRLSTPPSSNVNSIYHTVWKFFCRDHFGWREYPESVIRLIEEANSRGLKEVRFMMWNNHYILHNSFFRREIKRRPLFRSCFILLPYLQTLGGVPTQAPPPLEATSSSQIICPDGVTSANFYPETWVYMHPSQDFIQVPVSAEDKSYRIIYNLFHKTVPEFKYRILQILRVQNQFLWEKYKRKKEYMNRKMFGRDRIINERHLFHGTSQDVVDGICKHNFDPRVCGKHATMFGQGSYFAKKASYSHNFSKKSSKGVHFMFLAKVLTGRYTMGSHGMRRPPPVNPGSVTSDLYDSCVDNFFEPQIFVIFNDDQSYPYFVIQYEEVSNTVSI

## CCc1cc2ncc(CN3CCN(c4ccc(C(=O)NC5CCN(c6ccc7c(c6)C(=O)N(C6CCC(=O)NC6=O)C7=O)CC5)nc4)CC3)cc2[nH]c1=O (stereo not drawn) [Compound 10, N-(1-(2-(2,6-dioxopiperidin-3-yl)-1,3-dioxoisoindolin-5-yl)piperidin-4-yl)-5-(4-((7-ethyl-6-oxo-5,6-dihydro-1,5-naphthyridin-3-yl)methyl)piperazin-1-yl)picolinamide]
[1]; MDA-MB-436, 168 h, MDA-MB-436 cells, 7 days incubation, read-out: IC50 (nM), MDA-MB-436 cell inhibitory activity
  IC50: 36 nM
[1]; MDA-MB-436, MDA-MB-436 cells, 10 μM, read-out: Max inh. % 10 μM
  inhibition at 10 µM: 99.8%
PARP1 [2]; 100 nM
  PARP1 degradation rate @ 100 nM: 79%
PARP1 [2]
  DC50: 0.014 nM
PARP7
  IC50: 91 nM
PARP1 [3]
  DC50: 0.12 nM
